ChEMBL document CHEMBL5143592, “Angiogenesis-Inhibitory Piperidine Alkaloids from the Leaves of Microcos paniculata” (J Nat Prod, 2022)

Key:
[1] = tested on: HUVEC; experiment: Anti-angiogenesis activity against HUVEC cells assessed as inhibition of tube formation at 2.5 to 20 uM measured after 3 hrs by fluorescence microscopic analysis; type: functional, cell-based; conditions: Homo sapiens, dose 2.5-20 µM, DDE = dose-dependent effect
[2] = Cytotoxicity against HUVEC cells assessed as cell viability incubated for 24 hrs by MTT assay; type: toxicity, cell-based; conditions: human, read-out: Activity

With `CCCC[C@@H](O)[C@H](O)/C=C/C=C/[C@@H]1CC[C@@H](O)[C@H](C)N1` the Activity [1] was “Dde” and the viability at 24 h [2] was no less than 90%.
